Data: paper PMC5920526 (ACS catalysis, 2017)

Legend:
[1] = tested on: SpNanC; assay: Substrate specificity of SpNanC with pNP-tagged α2–3-linked sialosides; format: biochemical, Streptococcus pneumoniae; conditions: sialoside as substrate of SpNanC
[2] = tested on: SpNanC; assay: Kinetics studies of SpNanC; format: biochemical, Streptococcus pneumoniae; conditions: substance as substrate of SpNanC
[3] = biological target: BiNanH2 (Bifidobacterium longum subsp. infantis, UniProt A0ACD7UU12); assay: Sialidase inhibition, Neu5Acα2–3GalβpNP as substrate; format: biochemical; conditions: read-out: IC50 against BiNanH2; Neu5Acα2–3GalβpNP as substrate
[4] = biological target: VcSialidase (Vibrio cholerae serotype O1, UniProt P0C6E9); assay: biochemical
[5] = biological target: PmST1 (Pasteurella multocida, UniProt Q15KI8); format: biochemical; conditions: 0.1 mM inhibitor
[6] = biological target: SpNanA (Streptococcus pneumoniae, UniProt P62575); assay: biochemical; conditions: read-out: IC50 against SpNanA; Neu5Acα2–3GalβpNP as substrate
[7] = biological target: CpNanH (Clostridium perfringens, UniProt P10481); format: biochemical
[8] = biological target: SpNanB (Streptococcus pneumoniae serotype 4, UniProt Q54727); assay: Sialidase inhibition, Neu5Acα2–3GalβpNP as substrate; format: biochemical; conditions: 0.1 mM inhibitor
[9] = tested on: SpNanC; assay: as above; format: biochemical, Streptococcus pneumoniae; conditions: 0.1 mM inhibitor
[10] = biological target: human cytosolic sialidase hNEU2 (Homo sapiens, UniProt Q9Y3R4); assay: as above; format: biochemical; conditions: 0.1 mM inhibitor
[11] = tested on: human NEU1; conditions: cited from earlier work
[12] = biological target: AuSialidase (Paenarthrobacter ureafaciens, UniProt Q5W7Q2); assay: Sialidase inhibition, Neu5Acα2–3GalβpNP as substrate; format: biochemical, Arthrobacter ureafaciens; conditions: 0.1 mM inhibitor
[13] = tested on: viral sialidases; conditions: cited from earlier work
[14] = tested on: recombinant SpNanC; conditions: substance as substrate of previously reported recombinant SpNanC; cited from earlier work

CpNanH, sequence (P10481 whole entry, looked up): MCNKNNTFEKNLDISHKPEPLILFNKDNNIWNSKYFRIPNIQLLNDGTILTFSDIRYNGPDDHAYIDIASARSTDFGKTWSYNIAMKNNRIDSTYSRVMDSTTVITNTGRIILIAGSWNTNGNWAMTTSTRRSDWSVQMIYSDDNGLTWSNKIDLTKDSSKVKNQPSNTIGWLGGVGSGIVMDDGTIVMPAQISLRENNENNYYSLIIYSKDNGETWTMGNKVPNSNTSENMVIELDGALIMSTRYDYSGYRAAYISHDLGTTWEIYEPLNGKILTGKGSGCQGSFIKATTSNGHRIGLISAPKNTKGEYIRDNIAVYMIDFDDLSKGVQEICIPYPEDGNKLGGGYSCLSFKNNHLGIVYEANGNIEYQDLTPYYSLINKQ
VcSialidase, sequence (P0C6E9 25-781): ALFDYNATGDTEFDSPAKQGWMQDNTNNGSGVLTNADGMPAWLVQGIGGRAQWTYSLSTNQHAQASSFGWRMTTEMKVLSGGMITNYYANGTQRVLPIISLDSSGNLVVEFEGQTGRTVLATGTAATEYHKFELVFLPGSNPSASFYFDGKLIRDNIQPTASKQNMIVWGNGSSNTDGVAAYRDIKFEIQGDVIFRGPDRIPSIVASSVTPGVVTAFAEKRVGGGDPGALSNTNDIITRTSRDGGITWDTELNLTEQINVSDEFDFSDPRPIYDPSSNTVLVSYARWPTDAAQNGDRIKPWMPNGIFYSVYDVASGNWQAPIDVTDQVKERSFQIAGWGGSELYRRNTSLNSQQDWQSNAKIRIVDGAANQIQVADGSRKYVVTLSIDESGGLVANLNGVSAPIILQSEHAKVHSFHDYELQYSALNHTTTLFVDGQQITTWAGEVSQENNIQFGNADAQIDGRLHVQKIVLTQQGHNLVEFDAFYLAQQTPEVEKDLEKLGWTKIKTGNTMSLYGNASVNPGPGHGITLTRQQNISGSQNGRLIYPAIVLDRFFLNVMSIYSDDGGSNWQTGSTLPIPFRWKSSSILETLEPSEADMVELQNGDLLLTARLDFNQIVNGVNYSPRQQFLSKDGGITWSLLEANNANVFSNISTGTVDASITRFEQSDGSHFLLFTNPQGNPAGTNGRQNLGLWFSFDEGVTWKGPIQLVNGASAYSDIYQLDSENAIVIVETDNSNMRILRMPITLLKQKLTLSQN
SpNanA, sequence (P62575 54-1035): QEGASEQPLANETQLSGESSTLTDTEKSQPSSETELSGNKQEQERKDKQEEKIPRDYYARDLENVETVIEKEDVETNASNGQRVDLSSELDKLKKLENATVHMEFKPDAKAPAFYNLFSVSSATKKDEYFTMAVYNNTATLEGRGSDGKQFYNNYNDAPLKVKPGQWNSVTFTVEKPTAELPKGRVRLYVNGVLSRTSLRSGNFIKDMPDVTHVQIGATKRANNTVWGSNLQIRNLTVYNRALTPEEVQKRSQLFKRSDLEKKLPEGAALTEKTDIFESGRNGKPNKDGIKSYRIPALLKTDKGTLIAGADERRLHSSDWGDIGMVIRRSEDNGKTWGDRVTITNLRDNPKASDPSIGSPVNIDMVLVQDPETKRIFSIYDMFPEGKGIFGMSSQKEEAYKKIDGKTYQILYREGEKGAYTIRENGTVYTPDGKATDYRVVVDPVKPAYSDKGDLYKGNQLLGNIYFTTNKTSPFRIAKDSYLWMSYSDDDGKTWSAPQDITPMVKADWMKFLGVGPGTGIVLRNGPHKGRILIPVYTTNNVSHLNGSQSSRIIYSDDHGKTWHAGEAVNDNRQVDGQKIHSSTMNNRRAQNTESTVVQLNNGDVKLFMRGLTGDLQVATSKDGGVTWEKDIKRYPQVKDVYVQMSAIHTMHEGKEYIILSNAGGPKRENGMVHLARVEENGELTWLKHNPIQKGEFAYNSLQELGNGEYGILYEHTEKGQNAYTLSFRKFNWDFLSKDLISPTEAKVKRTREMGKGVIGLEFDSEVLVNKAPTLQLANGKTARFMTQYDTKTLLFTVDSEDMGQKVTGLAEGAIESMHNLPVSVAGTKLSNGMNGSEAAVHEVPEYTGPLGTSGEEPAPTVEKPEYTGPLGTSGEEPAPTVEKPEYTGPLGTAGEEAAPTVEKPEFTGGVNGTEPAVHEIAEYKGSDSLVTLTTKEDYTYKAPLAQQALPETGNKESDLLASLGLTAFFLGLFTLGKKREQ
SpNanB, sequence (Q54727 30-697): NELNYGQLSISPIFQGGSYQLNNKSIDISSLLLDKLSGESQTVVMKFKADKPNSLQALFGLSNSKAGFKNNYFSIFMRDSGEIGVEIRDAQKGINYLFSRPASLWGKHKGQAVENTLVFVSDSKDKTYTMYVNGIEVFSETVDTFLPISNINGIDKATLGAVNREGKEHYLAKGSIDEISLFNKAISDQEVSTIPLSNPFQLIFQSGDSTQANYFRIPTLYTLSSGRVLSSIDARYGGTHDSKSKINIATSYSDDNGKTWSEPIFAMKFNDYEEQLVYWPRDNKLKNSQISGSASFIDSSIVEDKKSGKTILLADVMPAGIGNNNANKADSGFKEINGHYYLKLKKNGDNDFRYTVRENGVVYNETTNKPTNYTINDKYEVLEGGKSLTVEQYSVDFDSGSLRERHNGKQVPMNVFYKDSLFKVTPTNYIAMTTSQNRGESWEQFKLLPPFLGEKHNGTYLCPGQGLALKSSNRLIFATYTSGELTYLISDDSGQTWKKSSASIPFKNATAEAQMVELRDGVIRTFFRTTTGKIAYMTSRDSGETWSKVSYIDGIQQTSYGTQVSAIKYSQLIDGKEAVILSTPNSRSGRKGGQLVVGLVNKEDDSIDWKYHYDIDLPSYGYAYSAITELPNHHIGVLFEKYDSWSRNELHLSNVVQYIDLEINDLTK
human cytosolic sialidase hNEU2, sequence (Q9Y3R4 whole entry): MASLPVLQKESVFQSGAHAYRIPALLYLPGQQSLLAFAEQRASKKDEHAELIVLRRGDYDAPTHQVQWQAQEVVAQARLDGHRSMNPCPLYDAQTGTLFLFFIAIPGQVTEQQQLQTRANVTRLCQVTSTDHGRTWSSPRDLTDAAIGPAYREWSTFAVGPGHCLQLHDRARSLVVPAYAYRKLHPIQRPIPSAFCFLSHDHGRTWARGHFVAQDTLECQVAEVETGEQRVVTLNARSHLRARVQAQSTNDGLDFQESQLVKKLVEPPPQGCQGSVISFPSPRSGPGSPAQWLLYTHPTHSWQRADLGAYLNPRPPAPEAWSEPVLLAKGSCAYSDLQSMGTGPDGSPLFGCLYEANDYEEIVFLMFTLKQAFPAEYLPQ

Structure (SMILES) | Percentage conversion [1] | Km [2] | kcat [2] | IC50 [3] | inhibitory activity against VcSialidase (in words) [4] | inhibitory activity against PmST1 (in words) [5] | IC50 [6] | inhibitory activity against CpNanH (in words) [7] | inhibitory activity against SpNanB (in words) [8] | inhibitory activity against SpNanC (in words) [9] | inhibitory activity against hNEU2 (in words) [10] | selectivity against human NEU1 [11] | inhibitory activity against AuSialidase (in words) [12] | selectivity against viral sialidases [13] | Km [14] | kcat [14]
CC(=O)N[C@H]1[C@H]([C@H](O)[C@H](O)CO)OC(O[C@H]2[C@@H](O)[C@@H](CO)O[C@@H](Oc3ccc([N+](=O)[O-])cc3)[C@@H]2O)(C(=O)O)C[C@@H]1O (stereo partly shown) [Neu5Acα2–3GalβpNP] | 85.1 ± 2.4% | 2700 ± 500 µM | 406.8 ± 39.0 s⁻¹ | – | – | – | – | – | – | – | – | – | – | – | – | –
CCCCC(=O)NC[C@@H](O)[C@@H](O)[C@@H]1OC(C(=O)O)=C[C@H](O)[C@H]1NC(C)=O [compound 12, Neu5Ac9NPent2en] | – | – | – | 34 ± 2 µM | lowered the inhibitory activity | not effective inhibitors | 10.5 ± 0.5 µM | not effective inhibitors | not effective inhibitors | not effective inhibitors | lowered the inhibitory activity | improved selectivity | lowered the inhibitory activity | – | – | –
CC(=O)N[C@H]1[C@H]([C@H](O)[C@H](O)CNC(=O)C2CC2)OC(C(=O)O)=C[C@@H]1O [compound 13, Neu5Ac9NCyclopro2en] | – | – | – | 29 ± 2 µM | lowered the inhibitory activity | not effective inhibitors | 6.8 ± 0.2 µM | not effective inhibitors | not effective inhibitors | not effective inhibitors | lowered the inhibitory activity | – | lowered the inhibitory activity | higher selectivity | – | –
CC(=O)N[C@H]1[C@H]([C@H](O)[C@H](O)CO)O[C@@](O[C@H]2[C@@H](O)[C@@H](CO)O[C@@H](O[C@H]3[C@H](O)[C@@H](O)C(O)O[C@@H]3CO)[C@@H]2O)(C(=O)O)C[C@@H]1O (stereo partly drawn) [α2–3-sialyllactose] | – | – | – | – | – | – | – | – | – | – | – | – | – | – | 1080 ± 350 µM | 0.313 ± 0.052 s⁻¹
